Laboratory results taken from patent US12673946B2, “Pyrimidin-4(3H)-one derivatives as TRPV4 antagonists” (RaQualia Pharma Inc., priority 2020, dated 2026).

Biological target: T1, human TRPV4 (Homo sapiens, UniProt Q9HBA0)
T1 construct: host or cells: tetracycline-inducible Flp-In T-REx 293 cells
Assay: Hypotonicity-induced Ca2+ influx (Fluo-4, FDSS)
Assay type: cell-based
Summary of the method: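 Flp-In T-REx 293 cells with tetracycline-induced human TRPV4, loaded with Fluo-4 for 60 min at 25 °C. Compound added 5 min before hypotonic mannitol/CaCl2 solution. Ca2+ signal recorded for 4.5 min on FDSS.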

[1] = Flp-In T-REx 293 cells expressing human TRPV4, examples listed under heading 'Human IC50<50 nM'
[2] = Flp-In T-REx 293 cells stably expressing human TRPV4, compounds listed by potency bin (<10 nM Tables 96-1/96-2, <3 nM Table 97)

T1 sequence (Q9HBA0 whole entry): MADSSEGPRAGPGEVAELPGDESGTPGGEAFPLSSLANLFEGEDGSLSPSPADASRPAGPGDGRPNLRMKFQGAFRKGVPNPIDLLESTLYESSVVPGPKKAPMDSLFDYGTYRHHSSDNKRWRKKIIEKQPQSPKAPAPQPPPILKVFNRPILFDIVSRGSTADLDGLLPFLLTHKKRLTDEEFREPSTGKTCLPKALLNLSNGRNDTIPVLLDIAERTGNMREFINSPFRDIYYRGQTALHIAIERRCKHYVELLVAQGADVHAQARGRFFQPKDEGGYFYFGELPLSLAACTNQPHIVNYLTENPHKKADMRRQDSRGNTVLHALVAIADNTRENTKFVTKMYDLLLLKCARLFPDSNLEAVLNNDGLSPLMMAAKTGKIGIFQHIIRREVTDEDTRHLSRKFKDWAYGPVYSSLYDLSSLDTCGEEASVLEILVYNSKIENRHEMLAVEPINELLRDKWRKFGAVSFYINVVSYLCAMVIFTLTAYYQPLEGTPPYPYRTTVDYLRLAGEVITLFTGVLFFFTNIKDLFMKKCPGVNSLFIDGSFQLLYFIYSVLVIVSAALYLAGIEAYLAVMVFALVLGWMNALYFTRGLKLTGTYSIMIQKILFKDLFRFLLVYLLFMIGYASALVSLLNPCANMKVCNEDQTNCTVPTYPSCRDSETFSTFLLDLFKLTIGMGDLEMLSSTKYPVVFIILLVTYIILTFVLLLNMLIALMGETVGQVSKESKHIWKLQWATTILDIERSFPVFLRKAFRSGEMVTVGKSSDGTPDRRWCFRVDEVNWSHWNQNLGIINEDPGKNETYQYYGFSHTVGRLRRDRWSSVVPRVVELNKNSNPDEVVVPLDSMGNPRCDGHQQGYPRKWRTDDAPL

| IC50 [1] | IC50 [2] | SMILES |
| --- | --- | --- |
| < 50 nM | < 10 nM | CC(C)(C)c1cccc(-c2cccc(CC(=O)N3CCCc4nc(C5(c6cccc(Cl)c6)CC5)[nH]c(=O)c4C3)c2)c1 [57-6] |
| < 50 nM | – | N#Cc1cc(Cl)cc(-c2cccc(CC(=O)N3CCc4nc(C5(c6cccc(Cl)c6)CC5)[nH]c(=O)c4C3)c2)c1 [14-121] |
| < 50 nM | – | O=C(C(O)c1cccc(-c2cccc(F)c2)c1)N1CCc2nc(C3(c4cccc(F)c4)CC3)[nH]c(=O)c2C1 (centres unmarked) [14-19] |
| < 50 nM | < 3 nM | O=C([C@H](O)c1cccc(C(F)(F)F)c1)N1CCCc2nc(C3(c4cccc(OC(F)(F)F)c4)CC3)[nH]c(=O)c2C1 [17-6] |
| < 50 nM | < 3 nM | O=C(N1CCCc2nc(C3(c4cccc(F)c4)CC3)[nH]c(=O)c2C1)C(F)(F)c1cccc(Cl)c1 [20-5] |
| < 50 nM | < 3 nM | O=C([C@H](O)c1cccc(C(F)(F)F)c1)N1CCc2nc(C3(c4cc(C5CCCC5)cs4)CC3)[nH]c(=O)c2C1 [15-1] |
| < 50 nM | < 3 nM | O=C([C@H](O)c1cccc(C(F)(F)F)c1)N1CCCc2nc(C3(c4cccc(-c5ccc(OCc6ccccn6)cc5)c4)CC3)[nH]c(=O)c2C1 [42-43] |
| < 50 nM | < 3 nM | Cc1cc(-c2cccc([C@@H](O)C(=O)N3CCCc4nc(C5(c6cccc(Cl)c6)CC5)[nH]c(=O)c4C3)c2)ccc1Cl [50-19] |
| < 50 nM | < 3 nM | COc1cc(-c2cccc(C3(c4nc5c(c(=O)[nH]4)CN(C(=O)[C@H](O)c4cccc(C(F)(F)F)c4)CCC5)CC3)c2)ccn1 [42-2] |
| < 50 nM | < 10 nM | N#Cc1ccc(-c2cccc(C3(c4nc5c(c(=O)[nH]4)CN(C(=O)[C@H](O)c4cccc(C(F)(F)F)c4)CCC5)CC3)c2)cc1F [42-67] |
| < 50 nM | < 10 nM | O=C(Cc1cccc(-c2ccc(OC(F)(F)F)cc2)c1)N1CCCc2nc(C3(c4cccc(Cl)c4)CC3)[nH]c(=O)c2C1 [17-129] |
| < 50 nM | < 10 nM | O=C([C@H](O)c1cccc(-c2cc(Cl)cc(C(F)(F)F)c2)c1)N1CCCc2nc(C3(c4cccc(Cl)c4)CC3)[nH]c(=O)c2C1 [50-17] |
| < 50 nM | – | O=C(Cc1cccc(C(F)(F)F)c1)N1CCCc2nc(C3(c4ccccc4)CC3)[nH]c(=O)c2C1 [17-51] |
| < 50 nM | < 10 nM | O=C(C(O)c1cccc(-c2cc3ccccc3s2)c1)N1CCc2nc(C3(c4ccccc4)CC3)[nH]c(=O)c2C1 (centres unmarked) [44-9] |
| < 50 nM | < 10 nM | O=C([C@H](O)c1cccc(C(F)(F)F)c1)N1CCCc2nc(C3(c4cncc(C(F)(F)F)c4)CC3)[nH]c(=O)c2C1 [19-13] |
| < 50 nM | < 3 nM | O=C([C@H](O)c1cccc(-c2cccc(C(F)(F)F)c2)c1)N1CCc2nc(C3(c4ccccc4)CC3)[nH]c(=O)c2C1 [44-71] |
| < 50 nM | < 3 nM | O=C(N1CCCc2nc(C3(c4ccccc4)CC3)[nH]c(=O)c2C1)C(F)(F)c1cccc(C(F)(F)F)c1 [20-1] |
| < 50 nM | < 3 nM | O=C([C@H](O)c1cccc(C(F)(F)F)c1)N1CCc2nc(C3(c4cc(C5CCCCC5)cs4)CC3)[nH]c(=O)c2C1 [15-4] |
| < 50 nM | < 10 nM | CN(C(=O)c1csc(C2(c3nc4c(c(=O)[nH]3)CN(C(=O)[C@H](O)c3cccc(C(F)(F)F)c3)CCC4)CC2)c1)C(c1ccccc1)c1ccccc1 [59-13] |
| < 50 nM | – | O=C(C(O)c1cccc(SC(F)(F)F)c1)N1CCc2nc(C3(c4cccc(F)c4)CC3)[nH]c(=O)c2C1 (centres unmarked) [14-27] |
| < 50 nM | < 3 nM | CC(C)c1csc(C2(c3nc4c(c(=O)[nH]3)CN(C(=O)C(O)c3cccc(Cl)c3F)CC4)CC2)c1 (centres unmarked) [15-27] |
| < 50 nM | – | O=C(C(O)c1cccc(C(F)(F)F)c1F)N1CCc2nc(C3(c4cccs4)CC3)[nH]c(=O)c2C1 (centres unmarked) [15-16] |
| < 50 nM | < 10 nM | O=C(C(O)c1cccc(OCc2ccccc2)c1)N1CCCc2nc(C3(c4ccccc4)CC3)[nH]c(=O)c2C1 (centres unmarked) [17-76] |
